Measurements taken from US20250382344A1, “Soluble GLP1/GIP/NPY2 Receptor Triple Agonists” (Boehringer Ingelheim International GmH, priority 2024, published 2025).
Where two headings read alike, the source gives them in different places.

Legend:
hGLP1R = target: T1, hGLP1R (Homo sapiens, UniProt P43220); experiment: hGLP1R CreLuc assay in 0.5% and 100% plasma (HEK-293 CRE-luciferase reporter cells); format: cell-based; conditions: HEK-293 reporter cells
T1 construct: expressed in transfected cells; host or cells: HEK-293 CRE-luciferase reporter cells
T1 sequence (P43220 24-463): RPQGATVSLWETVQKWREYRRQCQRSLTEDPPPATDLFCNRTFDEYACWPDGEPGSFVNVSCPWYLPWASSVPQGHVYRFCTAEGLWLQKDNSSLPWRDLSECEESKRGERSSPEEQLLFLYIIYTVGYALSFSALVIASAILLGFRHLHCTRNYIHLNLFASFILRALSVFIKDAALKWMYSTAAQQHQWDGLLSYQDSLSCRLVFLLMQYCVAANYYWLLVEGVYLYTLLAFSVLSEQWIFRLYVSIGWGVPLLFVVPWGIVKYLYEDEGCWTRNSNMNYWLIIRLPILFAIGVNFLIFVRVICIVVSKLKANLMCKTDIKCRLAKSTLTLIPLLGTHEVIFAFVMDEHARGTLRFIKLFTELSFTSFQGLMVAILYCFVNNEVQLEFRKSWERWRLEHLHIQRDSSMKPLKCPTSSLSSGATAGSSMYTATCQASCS

hGIPR = target: T2, hGIPR (Homo sapiens, UniProt P48546); experiment: hGIPR CreLuc assay in 0.5% and 100% plasma (CHO CRE-luciferase reporter cells); format: cell-based
T2 construct: expressed in transfected cells; host or cells: CHO CRE-luciferase reporter cells
T2 sequence (P48546 22-466): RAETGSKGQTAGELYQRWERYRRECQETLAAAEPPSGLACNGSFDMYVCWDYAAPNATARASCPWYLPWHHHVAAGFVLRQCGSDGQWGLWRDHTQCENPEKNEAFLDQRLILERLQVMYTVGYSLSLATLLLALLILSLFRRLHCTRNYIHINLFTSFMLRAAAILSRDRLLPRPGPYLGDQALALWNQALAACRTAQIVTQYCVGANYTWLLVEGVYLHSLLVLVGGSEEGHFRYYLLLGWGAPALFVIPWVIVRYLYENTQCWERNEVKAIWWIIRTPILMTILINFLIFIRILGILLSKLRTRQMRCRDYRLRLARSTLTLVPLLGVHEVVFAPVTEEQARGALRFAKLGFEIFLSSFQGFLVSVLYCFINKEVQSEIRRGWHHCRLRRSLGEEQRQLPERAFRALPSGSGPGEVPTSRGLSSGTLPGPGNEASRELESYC

hNPY2R = target: T3, hNPY2R (Homo sapiens, UniProt P49146); experiment: hNPY2R CreLuc assay in 0.5% and 100% plasma (HEK-293 CRE-luciferase reporter cells); format: cell-based; conditions: 0.5% human plasma, HEK-293 reporter cells, read-out: hNPY2R 0.5% hP
T3 construct: expressed in transfected cells; host or cells: HEK-293 CRE-luciferase reporter cells
T3 sequence (P49146 1-381): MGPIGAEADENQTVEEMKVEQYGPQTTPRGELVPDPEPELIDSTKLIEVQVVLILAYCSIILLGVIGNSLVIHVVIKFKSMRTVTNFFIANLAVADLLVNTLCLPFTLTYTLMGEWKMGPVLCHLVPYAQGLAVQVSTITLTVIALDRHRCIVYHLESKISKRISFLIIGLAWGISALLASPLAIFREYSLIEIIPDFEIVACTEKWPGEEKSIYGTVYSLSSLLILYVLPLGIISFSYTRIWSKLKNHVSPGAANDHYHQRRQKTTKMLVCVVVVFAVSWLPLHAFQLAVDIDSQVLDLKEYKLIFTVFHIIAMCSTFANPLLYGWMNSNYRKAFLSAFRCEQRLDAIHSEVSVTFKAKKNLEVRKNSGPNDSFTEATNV

[1] = Mouse PK after intravenous application; format: in vivo; conditions: plasma, male NMRI mice, intravenous 30-60 nmol/kg, non-compartmental analysis
Description: Pharmacokinetic parameters of the peptides were determined after intravenous application to NMRI mice (Naval Medical Research Institute mice). Male NMRI mice were obtained from Janvier Laboratories (France) weighing 30 g to 40 g. Mice were housed in standard cages with a 12:12 hours light:dark cycle and standard food and water access ad libitum. Each test peptide was dissolved in 50 mM phosphate buffer (pH 7.4)/3.5% mannitol. Intravenous application of 30-60 nmol/kg was performed via the tail vein. Serial blood samples from conscious mice were collected from the saphenous vein in EDTA-containing vials at different time points up to 56 hours post-dosing. Subsequently, plasma was prepared by centrifugation for 5 minutes at approximately 5000 rpm and stored at −20° C. until quantification of the peptide plasma levels by liquid chromatography mass spectrometry (LC-MS). Individual plasma concentration-time profiles were analysed by a non-compartmental approach and the resulting pharmacokinetic parameters were calculated.

[2] = Solubility in 0.1 M phosphate buffer at pH 7; format: physicochemical; conditions: 0.1 M phosphate buffer at pH 7, 10 mg/mL final peptide concentration, shaking 2 hours at room temperature, peptides as TFA-salts; measured sample pH 6.5-7.0
Normal NMRI Mice = experiment: Effect on acute food intake in normal NMRI mice; format: in vivo; conditions: male NMRI mice, single subcutaneous dose 100 nmol/kg, 24 hours food intake normalized to vehicle group
Description: Male NMRI mice were obtained from Janvier (Janvier Labs, France) or from Charles River (Charles River Research Models & Services Germany GmbH) at the age of 3 weeks. The animals get a microchip (Datamars, Slim Microchip T-SL) for individual identification after delivery. They were housed with 4 mice per cage under a 12/12 dark-light cycle, light off at 3 p.m. Room temperature was controlled to 21° C.+/−1° C. and humidity 60%+/−20%. Mice had ad libitum access to regular rodent chow (KLIBA Nafag 3040 or Altromin 1324, Brogaarden, Denmark) and tap water.
Latest transfer into the HM2-System of MBRose, Denmark (real-time monitoring system of food- and water intake) of the animals 5 days before study start, to allow acclimatization to experimental conditions. As the animals were uniquely identified with the microchips, each individual animal was identified by its own microchip upon entry and exit from the food channel via antennae. Randomization of the mice for each study group (n=8; age earliest 6 weeks old) was based on food intake (middle of last three days 24 h-interval) and bodyweight directly before start of the study. A vehicle treated (50 mM phosphate buffer pH 7.4 with 3.5% mannitol) group was included in each experiment. To have the same nutrition standard for each animal the food access was locked eight hours before dark phase. One hour before night, the animals were once treated subcutaneously with the test peptide. Food intake was reported hourly for a period of 24 hours.

[3] = 0.5% human plasma, read-out: hGLP1R 0.5% hP
[4] = 0.5% human plasma, read-out: hGIPR 0.5% hP

SMILES | EC50 (hGLP1R; [3]) [nM] | EC50 (hGLP1R; 100% human plasma, read-out: hGLP1R 100% hP) [nM] | EC50 (hGIPR; [4]) [nM] | EC50 (hNPY2R) [nM] | MRT [1] [h] | solubility at 2 h [2] [µg/mL] | EC50 (hGIPR; hGIPR 0.5% hP (nM), 0.5% human plasma) [nM] | EC50 (hGIPR; hGIPR 100% hP (nM), 100% human plasma) [nM] | Acute Food Intake 24 hours 100 nmol/kg [% CTL] (Normal NMRI Mice)
CC[C@H](C)[C@H](NC(=O)[C@H](CC(C)C)NC(=O)[C@H](Cc1c[nH]cn1)NC(=O)[C@H](CCCNC(=N)N)NC(=O)[C@@H](NC(=O)[C@H](Cc1ccccc1)NC(=O)[C@H](C)NC(=O)C(C)(C)NC(=O)[C@H](CCC(N)=O)NC(=O)[C@H](C)NC(=O)[C@H](CCC(N)=O)NC(=O)[C@H](CCCCN)NC(=O)[C@H](CCC(=O)O)NC(=O)[C@H](CC(C)C)NC(=O)C(C)(C)NC(=O)[C@@H](NC(=O)[C@H](CO)NC(=O)[C@H](Cc1ccc(O)cc1)NC(=O)[C@H](CC(=O)O)NC(=O)[C@H](CO)NC(=O)[C@@H](NC(=O)[C@H](Cc1ccccc1)NC(=O)[C@@H](NC(=O)CNC(=O)[C@H](CCC(=O)O)NC(=O)C(C)(C)NC(=O)[C@@H](N)Cc1ccc(O)cc1)[C@@H](C)O)[C@@H](C)O)[C@@H](C)CC)C(C)C)C(=O)N[C@@H](CC(N)=O)C(=O)N[C@@H](CCCCNC(=O)CC[C@H](NC(=O)CC[C@H](NC(=O)CC[C@H](NC(=O)CC[C@H](NC(=O)CC[C@H](NC(=O)CC[C@H](NC(=O)CCCCCCCCCCCCCCCCC(=O)O)C(=O)O)C(=O)O)C(=O)O)C(=O)O)C(=O)O)C(=O)O)C(=O)NC(C)(C)C(=O)N[C@H](C(=O)N[C@@H](CCCNC(=N)N)C(=O)N[C@@H](CCC(N)=O)C(=O)N[C@@H](CCCNC(=N)N)C(=O)N[C@@H](Cc1ccc(O)cc1)C(N)=O)[C@@H](C)O [Compound 134, Y-Aib-E-G-T-F-T-S-D-Y-S-I-Aib-L-E-K-Q-A-Q-Aib-A-F-V-R-H-L-I-N-K(1,3)-Aib-T-R-Q-R-Y-NH2.C18DA-gGlu-gGlu-gGlu-gGlu-gGlu-gGlu(1,2)] | 1 | 4 | 0.4 | 32.8 | 5.3 | – | – | – | –
CC[C@H](C)[C@H](NC(=O)[C@H](CC(C)C)NC(=O)[C@H](Cc1c[nH]cn1)NC(=O)[C@H](CCCNC(=N)N)NC(=O)[C@@H](NC(=O)[C@H](Cc1ccccc1)NC(=O)[C@H](CCC(=O)O)NC(=O)C(C)(C)NC(=O)[C@H](CCC(N)=O)NC(=O)[C@H](C)NC(=O)[C@H](CCC(N)=O)NC(=O)[C@H](CCCCN)NC(=O)[C@H](CCC(=O)O)NC(=O)[C@H](CC(C)C)NC(=O)C(C)(C)NC(=O)[C@@H](NC(=O)[C@H](CO)NC(=O)[C@H](Cc1ccc(O)cc1)NC(=O)[C@H](CC(=O)O)NC(=O)[C@H](CO)NC(=O)[C@@H](NC(=O)[C@H](Cc1ccccc1)NC(=O)[C@@H](NC(=O)CNC(=O)[C@H](CCC(=O)O)NC(=O)C(C)(C)NC(=O)[C@@H](N)Cc1ccc(O)cc1)[C@@H](C)O)[C@@H](C)O)[C@@H](C)CC)C(C)C)C(=O)N[C@@H](CC(N)=O)C(=O)N[C@@H](CCCCNC(=O)[C@@H](N)CCCCNC(=O)CC[C@H](NC(=O)CC[C@H](NC(=O)CC[C@H](NC(=O)CC[C@H](NC(=O)CC[C@H](NC(=O)CC[C@H](NC(=O)CCCCCCCCCCCCCCCCC(=O)O)C(=O)O)C(=O)O)C(=O)O)C(=O)O)C(=O)O)C(=O)O)C(=O)N[C@@H](CC(C)C)C(=O)N[C@H](C(=O)N[C@@H](CCCNC(=N)N)C(=O)N[C@@H](CCC(N)=O)C(=O)N[C@@H](CCCNC(=N)N)C(=O)N[C@@H](Cc1ccc(O)cc1)C(N)=O)[C@@H](C)O [Compound 83, Y-Aib-E-G-T-F-T-S-D-Y-S-I-Aib-L-E-K-Q-A-Q-Aib-E-F-V-R-H-L-I-N-K(1,3)-L-T-R-Q-R-Y-NH2.C18DA-gGlu-gGlu-gGlu-gGlu-gGlu-gGlu-eLys(1,2)] | 0.6 | – | 0.4 | 16.8 | 7.8 | 3800 | – | – | –
CC[C@H](C)[C@H](NC(=O)[C@H](CC(C)C)NC(=O)[C@H](Cc1c[nH]cn1)NC(=O)[C@H](CCCNC(=N)N)NC(=O)[C@@H](NC(=O)[C@H](Cc1ccccc1)NC(=O)[C@H](C)NC(=O)C(C)(C)NC(=O)[C@H](CCC(N)=O)NC(=O)[C@H](C)NC(=O)[C@H](CCC(N)=O)NC(=O)[C@H](CCCCN)NC(=O)[C@H](CCC(=O)O)NC(=O)[C@H](CC(C)C)NC(=O)C(C)(C)NC(=O)[C@@H](NC(=O)[C@H](CO)NC(=O)[C@H](CC(C)C)NC(=O)[C@H](CC(=O)O)NC(=O)[C@H](CO)NC(=O)[C@@H](NC(=O)[C@H](Cc1ccccc1)NC(=O)[C@@H](NC(=O)CNC(=O)[C@H](CCC(=O)O)NC(=O)C(C)(C)NC(=O)[C@@H](N)Cc1ccc(O)cc1)[C@@H](C)O)[C@@H](C)O)[C@@H](C)CC)C(C)C)C(=O)N[C@@H](CC(N)=O)C(=O)N[C@@H](CCCCNC(=O)[C@@H](N)CCCCNC(=O)CC[C@H](NC(=O)CC[C@H](NC(=O)CC[C@H](NC(=O)CC[C@H](NC(=O)CC[C@H](NC(=O)CC[C@H](NC(=O)CCCCCCCCCCCCCCCCCCC(=O)O)C(=O)O)C(=O)O)C(=O)O)C(=O)O)C(=O)O)C(=O)O)C(=O)NC(C)(C)C(=O)N[C@H](C(=O)N[C@@H](CCCNC(=N)N)C(=O)N[C@@H](CCC(N)=O)C(=O)N[C@@H](CCCNC(=N)N)C(=O)N[C@@H](Cc1ccc(O)cc1)C(N)=O)[C@@H](C)O [Compound 20, Y-Aib-E-G-T-F-T-S-D-L-S-I-Aib-L-E-K-Q-A-Q-Aib-A-F-V-R-H-L-I-N-K(1,3)-Aib-T-R-Q-R-Y-NH2.C20DA-gGlu-gGlu-gGlu-gGlu-gGlu-gGlu-eLys(1,2)] | – | – | – | – | – | 8500 | 0.4 | 6.9 | 79
